Reference: patent US20230203055A1, “FUSED RING COMPOUND AND APPLICATION THEREOF IN MEDICINE” (Betta Pharmaceuticals Co., LTD, priority 2020, published 2023)
Like-named read-outs stand apart in the source and are kept apart here.

Tests used:
[1] = test system: MIA PaCa-2 cells; assay: Detection of cell proliferation inhibition, MIA PaCa-2 (Cell-titer Glo, 96 h); format: cell-based
Procedure: MIA PaCa-2 cells were plated in a 96-well ultra-low adsorption plate at 600 cells and 160 µL/well. After overnight incubation, compound solutions with gradient concentrations were prepared, and 40 µL of DMSO solutions of the compounds to be tested were added to each well of cells respectively. Compound final concentrations were 10000, 2000, 400, 80, 16, 3.2, 0.64, 0.12, 0.025, 0 nM (all final concentrations of DMSO were 0.25%). Incubate at 37° C., 5% CO2 for 96 h. Add 50 µL of Cell-titer Glo working solution to each well, shake and mix well, incubate at room temperature for 10 min, read the Luminescence luminescence value with a multi-function microplate reader, and convert the luminescence value reading into inhibition percentage: Percent Inhibition = (Max-Reading)/(Max-Min)* 100. • “Max” is the DMSO control; • “Min” is the cell-free control.
Curve fitting was performed with Graphpad Prism software and IC50 values were obtained. See Table 1for IC50 data for the inhibition of MIA PaCa-2 cells by the compounds of the examples.

[2] = test system: H358 cells; assay: Detection of cell proliferation inhibition, H358 (Cell-titer Glo, 96 h); format: cell-based
Procedure: H358 cells were plated in 96-well ultra-low adsorption plates at 2000 cells and 190 µL/well. After overnight incubation, compound solutions of gradient concentrations were prepared, and 10 µL of the DMSO solution of each concentration of the compound to be tested was added to the cells in each well. Compound final concentrations were 10000, 3333.3, 1111.1, 370.4, 123.5, 41.2, 13.7, 4.6, 1.5, 0 nM (all final concentrations of DMSO were 0.25%). Incubate at 37° C., 5% CO2 for 96 h. Add 50 µL of Cell-titer Glo working solution to each well, incubate at room temperature for 10 min after shaking and mixing, read the Luminescence luminescence value with a multi-function microplate reader, and convert the luminescence value reading into the inhibition percentage:
Percent Inhibition = (Max-Reading)/(Max-Min)* 100. • “Max” is the DMSO control, • “Min” is the cell-free control.
Curve fitting was performed with Graphpad Prism software and IC50 values were obtained. See Table 1 for IC50 data on H358 cell inhibition by example compounds.

[3] = Homo sapiens, read-out: IC50 (nM) MIA PaCa-2
[4] = Homo sapiens, NCI-H358, read-out: IC50 (nM) H358
[5] = Homo sapiens, read-out: IC50 MIA PaCa-2

Molecule | IC50 ([1]; read-out: IC50 (nM) MIA PaCa-2) [nM] | IC50 ([2]; read-out: IC50 (nM) H358) [nM] | IC50 [1, 3] [nM] | IC50 [2, 4] [nM] | further results
C=CC(=O)N1CCN(c2nc(=O)n(-c3c(C)ccnc3C(C)C)c3c4c(c(F)cc23)-c2ccccc2CO4)[C@@H](C)C1 [Example 1] | 90.2 | 491 | – | – | –
C=CC(=O)N1CCN(c2nc(=O)n(-c3c(C)ccnc3C(C)C)c3c(F)c4c(cc23)OCc2cccc(F)c2-4)[C@@H](C)C1 [Example 4, (S)-8-(Acryloyl-2-Methylpiperazin-1-yl)-1,12-Difluoro-11-(2-Isopropyl-4-Methylpyridin-3-yl)-5H-Isochromene[3,4-g] Quinazolin-10(11H)-One] | 63 | 191 | – | – | –
C=CC(=O)N1CCN(c2nc(=O)n(-c3c(C)ccnc3C(C)C)c3c(F)c4c(cc23)OCc2cccc(Cl)c2-4)[C@@H](C)C1 [Example 6, (S)-8-(Acryloyl-2-Methylpiperazin-1-yl)-1-Chloro-12-Fluoro-11-(2-Isopropyl-4-Methylpyridin-3-yl)-5 H-Isochromene[3,4-g] Quinazolin-10(11 H)-one] | 272 | 496 | – | – | –
C=CC(=O)N1CCN(c2nc(=O)n(-c3c(C)ccnc3C(C)C)c3c4c(c(F)cc23)-c2c(O)cccc2CO4)[C@@H](C)C1 [Example 9, (S)(Acryloyl-2-methylpiperazinyl)-11-fluoro-10-hydroxy-4-(2-isopropyl-4-methylpyridin-3-yl) -4 H-isochromene[4,3-h] quinazolin-3(6 H)-one] | – | – | – | – | IC50 [1, 5]: > 10000 nM; IC50 ([2]; Homo sapiens, NCI-H358, read-out: IC50 H358): > 10000 nM
C=CC(=O)N1CCN(c2nc(=O)n(-c3c(C)ccnc3C(C)C)c3c(F)c4c(cc23)OCc2cccc(O)c2-4)[C@@H](C)C1 [Example 10, (S)-8-(Acryloyl-2-Methylpiperazin-1-yl)-12-Fluoro-1-Hydroxy-1l-(2-Isopropyl-4-Methylpyridin-3-yl)-5H-Isochromene[3,4-g]Quinazolin-10(11H)-One] | – | – | 3110 | 3870 | –
C=CC(=O)N1CCN(c2nc(=O)n(-c3c(C)ccnc3C(C)C)c3c4c(c(C)cc23)-c2c(F)cccc2CO4)[C@@H](C)C1 [Example 15, (S)-1-(4-Acryloyl-2-Methylpiperazin-1-yl)-10-Fluoro-4-(2-Isopropyl-4-Methylpyridine-3-yl)-11-Methyl-4H-Isochromene[4,3-h] Quinazolin-3(6H)-One] | < 50 | < 50 | – | – | –
C=CC(=O)N1CCN(c2nc(=O)n(-c3c(C)ccnc3C(C)C)c3c4c(c(C(F)(F)F)cc23)-c2c(F)cccc2CO4)[C@@H](C)C1 [Example 16, (S)-1-(4-Acryloyl-2-Methylpiperazin-1-yl)-10-Fluoro-4-(2-Isopropyl-4-Methylpyridine-3-yl)-11-(Trifluoromethyl)-4H-Isochromene[4,3-h] Quinazolin-3(6H)-One] | < 50 | 80.6 | – | – | –
C=CC(=O)N1CCN(c2nc(=O)n(-c3c(C)ccnc3C(C)C)c3c(F)c4c(cc23)OCc2ccc(F)c(F)c2-4)[C@@H](C)C1 [Example 17, (S)-8-(4-Acryloyl-2-Methylpiperazin-1-yl)-1,2,12-Trifluoro-11-(2-Isopropyl-4 -Methylpyridin-3-yl)-5H Isochromene[3,4-g] Quinazolin-10(11H)-One] | – | – | 317 | 274 | –
C=CC(=O)N1CCN(c2nc(=O)n(-c3c(C)ccnc3C(C)C)c3c4c(c(Cl)cc23)-c2cccnc2CO4)[C@@H](C)C1 [Example 20, (S)-7-(4-Acryloyl-2-Methylpiperazin-1-yl)-5-Chloro-10-(2-Isopropyl-4-Methylpyridine-3-yl)-10H Pyridin[3’,2’:4,5] Pyrano[3,2-h]Quinazolin-9(12H)-One] | – | – | 64.2 | 62.6 | –
C=CC(=O)N1CCN(c2nc(=O)n(-c3c(C)ccnc3C(C)C)c3c(F)c4c(cc23)OCc2ccc3ccccc3c2-4)[C@@H](C)C1 [Example 22, (S)-10-(4-Acryloyl-2-Methylpiperazin-1-yl)-14-Fluoro-13-(2-Isopropyl-4-Methylpyridine-3-yl)-7H-Benzo[5,6] Isochromene[3,4-g]Quinazolin-12(13H)-One] | – | – | 2500 | 3740 | –
C=CC(=O)N1CCN(c2nc(=O)n(-c3c(C)ccnc3C(C)C)c3c4c(c(Cl)cc23)-c2cnccc2CO4)[C@@H](C)C1 [Example 23, (S)-1-(4-Acryloyl-2-Methylpiperazin-1-yl)-11-Chloro-4-(2-Isopropyl-4-Methylpyridine-3-yl)-4H-Pyridin[3’,4’:4,5]Pyrano[3.2-h]Quinazolin-3(6H)-One] | – | – | 292 | 532 | –

Continued, in another order:

IC50 ([1]; read-out: IC50 (nM) MIA PaCa-2) [nM] | IC50 ([2]; read-out: IC50 (nM) H358) [nM] | IC50 [1, 3] [nM] | IC50 [2, 4] [nM] | Molecule | further results
70 | 137 | – | – | 10-((S)-4-(Acryloyl-2-Methylpiperazin-1-yl)-8-Fluoro-13-(2-Isopropyl-4-Methyl) Pyridin-3-yl)-2,3-Dihydrobenzo [4,5] Oxodipine [3,2-h] Quinolin-12(13H)One [Example 7] | –
122 | 295 | – | – | C=CC(=O)N1CCN(c2nc(=O)n(-c3c(C)ccnc3C(C)C)c3c(F)c4c(cc23)OCc2ccccc2-4)[C@@H](C)C1 [Example 2] | –
< 50 | 78 | – | – | C=CC(=O)N1CCN(c2nc(=O)n(-c3c(C)ccnc3C(C)C)c3c4c(c(F)cc23)-c2c(F)cccc2CO4)[C@@H](C)C1 [Example 3] | –
< 50 | 115 | – | – | C=CC(=O)N1CCN(c2nc(=O)n(-c3c(C)ccnc3C(C)C)c3c4c(c(F)cc23)-c2c(Cl)cccc2CO4)[C@@H](C)C1 [Example 5, (S)-1-(Acryloyl-2-Methylpiperazin-1-yl)-10-Chloro-11-Fluoro-4-(2-Isopropyl-4-Methylpyridin-3-yl)-4H-Isochromene[4,3-h] Quinazolin-3(6H)-One] | –
– | – | 85 | 155 | C=CC(=O)N1CCN(c2nc(=O)n(-c3c(C)ccnc3C(C)C)c3c(F)c4c(cc23)OCCc2ccccc2-4)[C@@H](C)C1 [Example 8] | –
– | – | 964 | 2040 | C=CC(=O)N1CCN(c2nc(=O)n(-c3c(C)ccnc3C(C)C)c3c4c(c(F)cc23)-c2c(cccc2OC)CO4)[C@@H](C)C1 [Example 11, (S)-1-(Acryloyl-2-Methylpiperazin-1-yl)-l1-Fluoro-10-Methoxy-4-(2-Isopropyl-4-Methylpyridin-3-yl)-4H-Isochromene[4,3-h] Quinazolin-3(6H)-one] | –
– | – | – | 3180 | C=CC(=O)N1CCN(c2nc(=O)n(-c3c(C)ccnc3C(C)C)c3c(F)c4c(cc23)OCc2cccc(OC)c2-4)[C@@H](C)C1 [Example 12, (S)-8-(Acryloyl-2-Methylpiperazin-1-yl)-12-Fluoro-1-Methoxy-11-(2-Isopropyl-4-Methylpyridin-3-yl)-5H-Isochromene[3,4-g] Quinazolin-10(11H)-One] | IC50 [1, 5]: > 2000 nM
< 50 | < 50 | – | – | C=CC(=O)N1CCN(c2nc(=O)n(-c3c(C)ccnc3C(C)C)c3c4c(c(Cl)cc23)-c2c(F)cccc2CO4)[C@@H](C)C1 [Example 13, (S)-1-(4-Acryloyl-2-Methylpiperazin-1-yl)-11-Chloro-10-Fluoro-4-(2-Isopropyl-4-Methylpyridin-3-yl)-4H-Isochromene[4,3-h] Quinazolin-3(6H)-One] | –
< 50 | < 50 | – | – | C=CC(=O)N1CCN(c2nc(=O)n(-c3c(C)ccnc3C(C)C)c3c4c(c(C=C)cc23)-c2c(F)cccc2CO4)[C@@H](C)C1 [Example 14, (S)-1-(4-Acryloyl-2-Methylpiperazin-1-yl)-10-Fluoro-4-(2-Isopropyl-4-Methylpyridine-3-yl)-11-Vinyl-4H-Isochromene[4,3-h] Quinazolin-3(6H)-One] | –
– | – | < 50 | < 50 | C=CC(=O)N1CCN(c2nc(=O)n(-c3c(C)ccnc3C(C)C)c3c4c(c(Cl)cc23)-c2c(ccc(F)c2F)CO4)[C@@H](C)C1 [Example 18, (S)-1-(4-Acryloyl-2-Methylpiperazin-1-yl)-11-Chloro-9,10-Difluoro-4-(2-Isopropyl-4-Methylpyridin-3-yl)-4H-Isochromene[4,3-h] Quinazolin-3(6H)-One] | –
– | – | < 50 | < 50 | C=CC(=O)N1CCN(c2nc(=O)n(-c3c(C)ccnc3C(C)C)c3c4c(c(Cl)cc23)-c2c(F)cccc2CCO4)[C@@H](C)C1 [Example 19, 10-((S)-4-Acryloyl-2-Methylpiperazin-1-yl)-8-Chloro-7-Fluoro-13-(2-Isopropyl-4-Methylpyridin-3-yl)-2,3-Dihydrobenzo[4,5]oxa[3,2-h]Quinazo1in-12(13H)-One] | –
– | – | 1700 | 690 | C=CC(=O)N1CCN(c2nc(=O)n(-c3c(C)ccnc3C(C)C)c3c4c(c(F)cc23)-c2c(ccc3ccccc23)CO4)[C@@H](C)C1 [Example 21, (S)-1-(4-Acryloyl-2-Methylpiperazin-1-yl)-13-Fluoro-4-(2-Isopropyl-4-Methylpyridine-3-yl)-4H-Benzo[5,6] Isochromene[4,3-h]Quinazolin-3(6H)-one] | –
